Test results as given in patent US20130085105A1, “Transdermal Administration Of Peptides” (The Provost, Fellows and Scholars of the College of Holy …, priority 2010, published 2013).

What was measured:
[1] = Solubility of somatostatin fatty-acid salts; assay type: physicochemical; details: 24 hours
Protocol: The solubilities of Compound A and Compound B oleate were determined in deionized water, phosphate-buffered saline (PBS; pH 7.4) and n-octanol. Analysis was carried out by placing an excess of each salt with 1 ml of the selected solvent into four 4 ml sealed HPLC vials. The samples were allowed to equilibrate at 37° C. for 24 hours with shaking. Each of the four dispersions was then filtered through a 0.2 μm nylon membrane (Pall Gelman, Ann Arbor, Mich., U.S.A.). Prior to HPLC analysis, the n-octanol samples were diluted 1:100 with methanol and the PBS and deionized water samples were diluted 1:10 in de-ionized water. Table 7 lists the solubilities of Compound A and Compound B oleate salts in deionized water, PBS and n-octanol.

[2] = In vitro transdermal permeation, diffusion cell, hairless mouse skin; assay type: in vitro ADME, hairless mice
Text: The abdominal skin from male hairless mice (mice of the HRS strain carrying a mutant Hr gene (hr/hr)) aged 6-8 weeks was cleaned of any subcutaneous fat with blood vessels while maintaining the integrity of the viable epidermis and SC. The excised skin was used immediately after preparation and was not stored prior to use.
A custom made finite dosing diffusion cell (AGB Scientific, Dublin, Ireland, FIG. 1) based upon and modified from the Keshary-Chien type diffusion cell was used for in vitro permeation studies.
Three to five diffusion cells were used in each permeation experiment and monitoring was performed over a 48 hour period. The cells were linked in series to a thermostatically controlled circulation bath set at 35° C. to mimic human skin surface temperature. Each cell was placed on a stir-plate set at a defined stirring rate of 1,000 rpm. The surface area for permeation provided by each cell was 3.14 cm^2.
Data collected from each permeation study included:
1) the average maximum flux obtained in 48 hours (Jmax),
2) the total absorption characterized as the total weight of peptide delivered transdermally into the receiver compartment over a 48 hour period,
3) the lag time to detectable flux which was equivalent to the latest sampling time at which no peptide was detectable by HPLC analysis of the receiver solution, and
4) an equivalent 48-hour steady state flux was determined by obtaining the slope of the best-fit line for a plot of cumulative flux per unit area versus time (described by McDaid, D. M. et al., Int. J. Pharm., 133:71-83, 1996).
Fresh hairless mouse skin samples or fresh or freshly thawed pig skin samples were mounted onto the diffusion cell with the SC topmost and in contact with the donor system. A rubber or plastic ring was placed on top of the skin sample to secure it in position. The combination of the diffusion cell top, the skin and the rubber ring was securely fastened together by means of a threaded cap. A recorded volume of receiver solution was added to the receiver compartment and maintained at 35° C. The receiver solution was 60/40 (v/v) PBS/propylene glycol (pH 7.1). The propylene glycol fraction was used to increase the solubility of the somatostatin-fatty acid salts. Previous work reported by Morgan et al. (J. Pharm. Sci., 87:1213-1218, 1998) has shown that a 50/50 water/propylene glycol receptor solution had no detrimental effect on the barrier integrity of both hairless mouse and porcine skin.
The receiver solution was allowed to equilibrate at 35° C. for 30 minutes. […] A narrow-bore hypodermic needle was used to withdraw 1 ml samples from the receiver compartment via the sampling port; at each sampling time, an equal volume of drug-free receiver solution was immediately added back to the receiver compartment. Samples were analyzed by HPLC.
HPLC determination of peptide content in the receiver solution along with the known surface area of skin used (3.14 cm^2) allowed for calculation of transdermal flux (in units of μg/cm^2/hr) for each time point. Panels 1 and 2 of FIG. 2 show flux […] profiles for the myristate, octanoate, decanoate, linoleate, nonanote, acetate and laurate […]
Once lead candidate somatostatin-fatty acid salts had been selected on the basis of in vitro permeation in a DMSO solution, the effect of different solvents and penetration enhancers on permeation was assessed. The concentration of the donor solution corresponded to 5 mg/ml free base peptide for all experiments and all donor solutions were equilibrated at 37° C. for one hour prior to use. These experiments were carried out using hairless mouse skin and pigskin barriers.

[3] = Partition coefficients n-octanol/deionized water and n-octanol/PBS; assay type: physicochemical; details: 24 hours
Protocol: The partition coefficients for all somatostatin-fatty acid salts in either n-octanol/deionized water or n-octanol/PBS (pH 7.4) were determined. The partition coefficient is the concentration of Compound A or Compound B in the n-octanol phase divided by the concentration in the aqueous or PBS phase.
An accurately weighed sample of each salt was placed into 4 ml HPLC vials sealed with caps containing pierceable silicone septa and dissolved in 2 ml n-octanol. Two ml of either deionized water or PBS were added to each sample; the vials were vortexed vigorously and incubated at 37° C. with agitation for 24 hours in a shaker-incubator at 400 rpm.
Following incubation, two samples were withdrawn from each vial. Once the layers had fully partitioned, a syringe was used to draw a sample of the aqueous phase or the n-octanol phase. Samples from each phase were diluted appropriately with deionized or methanol prior to HPLC analysis.

[4] = donor 55% EtOH 40% Water 5% Cineole, 5 mg/ml free base peptide
[5] = donor 55/45 (v/v) EtOH/H2O, approx. 5 mg/ml free base peptide
[6] = donor DMSO, approx. 5 mg/ml free base peptide (4.9 mg/ml Compound A oleate, 5.2 mg/ml Compound A acetate)
[7] = donor DMSO, approx. 5 mg/ml free base peptide (4.9 mg/ml Compound A oleate, 5.2 mg/ml Compound A acetate), 48 hr
[8] = n-octanol/deionized water, 37° C.

## [4-(2-hydroxyethyl)]-1-piperazinylacetyl-D-Phe-c(Cys-Tyr-D-Trp-Lys-Abu-Cys)-Thr-NH2 [Compound B di-oleate]
[1]; PBS pH 7.4, 37° C.
  Solubility PBS: 1302 µg/mL
[1]; deionized water, 37° C.
  Solubility DI H2O: 50 µg/mL
[1]; n-octanol, 37° C.
  Solubility n-Octanol: 136900 µg/mL
[2]; 55/40/5 ethanol/water/cineole vs 55/45 ethanol/water
  increase in total peptide flux over 48 hours due to cineole: 19.26%
[2]; [4]
  Jmax: 39.838 μg/cm^2/hr
  Jss: 24.075 μg/cm^2/hr
  Lag Time: 1 h
  Total Absorption: 3,279.62 μg/48 hr
[2]; [5]
  Jmax: 32.902 μg/cm^2/hr
  Jss: 20.264 μg/cm^2/hr
  Lag Time: 1 h
  Total Absorption: 2,750.01 μg/48 hr
[2]; [6]
  Lag Time: 1 h
  Total Absorption: 814.86 μg/48 hr
[2]; [7]
  Jmax: 21.407 μg/cm^2/hr
  Jss: 5.158 μg/cm^2/hr
[2]; vs myristate, octanoate, decanoate, linoleate, nonanoate, acetate, laurate salts of Compound A and acetate of Compound B
  flux profile in DMSO compared with other salts: far exceeded
[3]; n-octanol/PBS pH 7.4, 37° C.
  Log KOPBS: −1.398
  O/PBS Coefficient (KOPBS): 0.04
[3]; [8]
  Log KOW: 2.532
  O/W Coefficient (KOW): 340.43
